# Measurements as given in ChEMBL document CHEMBL1142113, “Limonoids from the seeds of the marine mangrove Xylocarpus granatum” (J Nat Prod, 2007).
# What was measured:
# P388 = assay: Cytotoxicity against mouse P388 cells by MTT method; type: cell-based; details: for Activity: mouse, p388; for IC50: Mus musculus, P388
# A549 = assay: Cytotoxicity against human A549 cells by SRB method; type: cell-based; details: for Activity: human, a549; for IC50: Homo sapiens, A549
SMILES,Activity (P388),Activity (A549),IC50 (P388),IC50 (A549)
C/C=C(\C)C(=O)O[C@@H]1[C@@H]2[C@H]3O[C@@]34[C@H](CC[C@@]3(C)[C@H](c5ccoc5)OC(=O)C[C@@]43O)[C@]3(C)[C@@H](CC(=O)OC)[C@]1(C)CO[C@]23O [GRANAXYLOCARPIN C],Not Active,Not Active,,
COC(=O)C1=CC[C@@]23CC[C@@H]([C@@](C)(/C=C/C=C(\C)C(=O)O)OC2=O)[C@@]3(OC(C)=O)CC1 [PSEUDOLARIC ACID B],,,0.74 µM,
COC(=O)[C@H](OC(C)=O)[C@H]1[C@]2(C)C[C@]3(OC(C)=O)[C@H]([C@H]2OC(C)=O)[C@@H](OC(C)=O)[C@]2(O)[C@@H]4CC(=O)O[C@@H](c5ccoc5)[C@]4(C)CC[C@@H]2[C@]13C [GRANAXYLOCARPIN E],Not Active,Not Active,,
COC(=O)[C@H](O)[C@H]1[C@]2(C)C[C@]3(OC(C)=O)[C@H]([C@H]2OC(C)=O)[C@@H](OC(C)=O)[C@]2(O)[C@@H]4CC(=O)O[C@@H](c5ccoc5)[C@]4(C)[C@@H](OC(C)=O)C[C@@H]2[C@]13C [GRANAXYLOCARPIN D],Not Active,Not Active,,
C/C=C(\C)C(=O)O[C@H](C1=CC(C)(C)[C@H](CC(=O)OC)[C@@H](C)C1=O)[C@@]1(O)C(=O)CC[C@]2(C)C1=CC(=O)O[C@H]2c1ccoc1 [GRANAXYLOCARPIN B],,,4.9 µM,> 10 µM
CCC(C)C(=O)O[C@@H]1C([C@@H](OC(C)=O)[C@@]2(O)C(=O)CC[C@]3(C)C2=CC(=O)O[C@H]3c2ccoc2)C(=O)[C@H](C)[C@@H](CC(=O)OC)C1(C)C (stereo partly specified) [GRANAXYLOCARPIN A],,,9.3 µM,> 10 µM
